Data from article PMC9455983 (International Journal of Molecular Sciences, 2022).
Read-outs that look alike come from different tables or passages of the source.

Columns and labels:
[1] = molecular target: T1, kappa-opioid receptor (KOR) (Cavia porcellus, UniProt P41144); assay: KOR radioligand competition binding assay ([3H]U69,593); design: species or system guinea pig; conditions: Kappa screening results
T1 construct: Guinea pig cortices and cerebella were homogenized using 50 mM Tris, pH 7.4; from tissue; host or cells: guinea pig cortex and cerebellum membranes
Protocol: KOR binding assay: Guinea pig cortices and cerebella were homogenized using 50 mM Tris, pH 7.4, 10 mM MgCl2-6H2O, […] centrifuged and incubated as above. Each assay tube contained 2 nM [^3H]U69,593. Assay tubes were incubated for 2 h at 25 °C. Unlabeled U50,488 was used as a competitor to generate a standard curve and determine nonspecific binding.
(§1) All three binding assays were terminated by filtration through GF/B filters, soaked in 5 mg/mL bovine serum albumin, 50 mM Tris, pH 7.4, on a Tomtec Mach II Harvester 96. The filters were subsequently washed with 6 mL of assay buffer. Bound radioactivity was counted on a Wallac Betaplate Liquid Scintillation Counter. Experiments were conducted using two replicates and repeated twice. Values in Scheme 2 represent the mean ± SD of two experiments with two replicates in each test.

mu-opioid receptor (MOR) = molecular target: T2, mu-opioid receptor (MOR) (Rattus norvegicus, UniProt P33535); assay: MOR radioligand competition binding assay ([3H]-DAMGO); conditions: Mu screening results
T2 construct: Rat cortices were homogenized using 50 mM Tris, pH 7.4, and centrifuged at 16,500 rpm for 10 min; from tissue; host or cells: rat cortex membranes
Protocol: MOR binding assay: Rat cortices were homogenized using 50 mM Tris, pH 7.4, and centrifuged at 16,500 rpm for 10 min. The pellets were resuspended in fresh buffer and incubated at 37 °C for 30 min. Following incubation, the suspensions were centrifuged as before, the resulting pellets were resuspended in 100 volumes of 50 mM Tris, pH 7.4 plus 2 mg/mL bovine serum and the suspensions combined. Each assay tube contained 0.5 mL of membrane suspension, 2 nM [^3H]-DAMGO, and 0.02 mg/mL mixture in a total volume of 0.65 mL [13, 45, 53, 55].
as §1

[2] = molecular target: T3, delta-opioid receptor (DOR) (Rattus norvegicus, UniProt P33533); assay: DOR radioligand competition binding assay ([3H]-DPDPE); conditions: Delta screening results
T3 construct: Rat cortices were homogenized using 50 mM Tris, pH 7.4, 10 mM MgCl2-6H2O, 200 µM PMSF; from tissue; host or cells: rat cortex membranes
Protocol: DOR binding assay: Rat cortices were homogenized using 50 mM Tris, pH 7.4, 10 mM MgCl2-6H2O, 200 µM PMSF, centrifuged and incubated as above. Each assay tube contained 2 nM [^3H]-DPDPE. Assay tubes were incubated for 2.5 h at 25 °C. Unlabeled DPDPE was used as a competitor to generate a standard curve and determine nonspecific binding.
as §1

[3] = experiment 1, unit inferred, read-out: Ki (Exp 1)
[4] = experiment 2, unit inferred, read-out: Ki (Exp 2)
[5] = mean of Exp 1 and Exp 2, unit inferred, read-out: MEAN (Ki)
[6] = mean of two experiments, read-out: Ki
[7] = first Ki column, unit not printed (apparently M), read-out: Ki (first column)
[8] = mean of both Ki, unit inferred, read-out: MEAN (Ki)
[9] = second Ki column, unit not printed (apparently M), read-out: Ki (second column)

Row | Compound | Ki [1, 3] | Ki [1, 4] | Ki [1, 5] | Ki [1, 6] | Ki (mu-opioid receptor (MOR); [3]) | Ki (mu-opioid receptor (MOR); [4]) | Ki (mu-opioid receptor (MOR); [5]) | Ki (mu-opioid receptor (MOR); [6]) | Ki [2, 7] | Ki [2, 8] | Ki [2, 6] | Ki [2, 9]
1 | CC(C)C[C@@H](CN1C(=N)NC[C@@H]1Cc1ccc(O)cc1)N1C[C@H](Cc2ccc(O)cc2)NC1=N [1968-26] | 15800 nM | 13200 nM | 14500 nM | 14500 nM | 781 nM | 751 nM | 766 nM | 766 nM | 7480 nM | 8070 nM | 8070 nM | 8670 nM
2 | Cc1cc(O)cc(C)c1C[C@@H](CN1C(=N)NC[C@@H]1Cc1ccc(O)cc1)N1C[C@H](CC(C)C)NC1=N [1968-31] | 2580 nM | 2080 nM | 2330 nM | 2330 nM | 295 nM | 298 nM | 297 nM | 297 nM | 2200 nM | 1940 nM | 1940 nM | 1680 nM
3 | Cc1cc(O)cc(C)c1C[C@H]1CN([C@@H](Cc2ccccc2)CN2C(=N)NC[C@@H]2C)C(=N)N1 [1968-36] | 1030 nM | 1320 nM | 1170 nM | 1170 nM | 167 nM | 124 nM | 146 nM | 146 nM | 3710 nM | 3550 nM | 3550 nM | 3400 nM
4 | CC(C)C[C@H]1CN([C@@H](Cc2ccccc2)CN2C(=N)NC[C@@H]2Cc2ccc(O)cc2)C(=N)N1 [1968-69] | 2120 nM | 2130 nM | 2120 nM | 2120 nM | 208 nM | 188 nM | 198 nM | 198 nM | 4230 nM | 4630 nM | 4630 nM | 5020 nM
5 | C[C@H]1CNC(=N)N1C[C@H](Cc1ccc(O)cc1)N1C[C@H](Cc2ccccc2)NC1=N [1968-37] | 3450 nM | 3880 nM | 3660 nM | 3660 nM | 749 nM | 588 nM | 669 nM | 669 nM | 3430 nM | 3610 nM | 3610 nM | 3800 nM
6 | C[C@H]1CNC(=N)N1C[C@H](Cc1ccccc1)N1C[C@H](Cc2ccccc2)NC1=N [1968-33] | 16300 nM | 14100 nM | 15200 nM | 15200 nM | 4170 nM | 2540 nM | 3350 nM | 3360 nM | 16600 nM | 11300 nM | 11300 nM | 5950 nM
7 | Cc1cc(O)cc(C)c1C[C@@H](CN1C(=N)NC[C@@H]1Cc1ccc(O)cc1)N1C[C@H](Cc2ccc(O)cc2)NC1=N [1968-30] | 1730 nM | 1760 nM | 1740 nM | 1740 nM | 98.8 nM | 127 nM | 113 nM | 113 nM | 1340 nM | 1200 nM | 1200 nM | 1070 nM
8 | Cc1cc(O)cc(C)c1C[C@@H](CN1C(=N)NC[C@@H]1Cc1ccccc1)N1C[C@H](Cc2ccccc2)NC1=N [1968-67] | 1230 nM | 1120 nM | 1170 nM | 1170 nM | 230 nM | 177 nM | 203 nM | 203 nM | 828 nM | 830 nM | 830 nM | 833 nM
9 | Cc1cc(O)cc(C)c1C[C@H]1CNC(=N)N1C[C@H](Cc1c(C)cc(O)cc1C)N1C[C@H](CC(C)C)NC1=N [1968-63] | 1640 nM | 1470 nM | 1550 nM | 1550 nM | 62.8 nM | 98.8 nM | 80.8 nM | 81 nM | 2270 nM | 2390 nM | 2390 nM | 2510 nM
10 | C[C@H]1CNC(=N)N1C[C@H](Cc1ccc(O)cc1)N1C[C@H](Cc2ccc(O)cc2)NC1=N [1968-38] | 1690 nM | 1960 nM | 1820 nM | 1820 nM | 174 nM | 195 nM | 184 nM | 184 nM | 4270 nM | 3800 nM | 3800 nM | 3330 nM
11 | Cc1cc(O)cc(C)c1C[C@H]1CNC(=N)N1C[C@H](Cc1ccc(O)cc1)N1C[C@H](CC(C)C)NC1=N [1968-71] | 373 nM | 386 nM | 380 nM | 380 nM | 58 nM | 53 nM | 55.5 nM | 56 nM | 3830 nM | 3430 nM | 3430 nM | 3020 nM
12 | CC(C)C[C@H]1CN([C@@H](CC(C)C)CN2C(=N)NC[C@@H]2Cc2ccccc2)C(=N)N1 [1968-11] | 13900 nM | 8930 nM | 11400 nM | 11400 nM | 2980 nM | 3040 nM | 3010 nM | 3010 nM | 26400 nM | 58600 nM | 58600 nM | 90900 nM
13 | N=C1NC[C@H](Cc2ccccc2)N1C[C@H](Cc1ccc(O)cc1)N1C[C@H](Cc2ccccc2)NC1=N [1968-5] | 3950 nM | 3730 nM | 3840 nM | 3840 nM | 925 nM | 671 nM | 798 nM | 798 nM | 6400 nM | 9230 nM | 9230 nM | 12100 nM
14 | Cc1cc(O)cc(C)c1C[C@H]1CN([C@@H](Cc2ccc(O)cc2)CN2C(=N)NC[C@@H]2Cc2c(C)cc(O)cc2C)C(=N)N1 [1968-56] | 736 nM | 1250 nM | 991 nM | 991 nM | 55 nM | 69.9 nM | 62.5 nM | 62 nM | 1330 nM | 1300 nM | 1300 nM | 1260 nM
